According to US9309231B2, “Bridged ring compounds as hepatitis C virus (HCV) inhibitors and pharmaceutical applications thereof” (SUNSHINE LAKE PHARMA CO., LTD, priority 2012, dated 2016):

Legend:
HCV GT1b replicon cells = assay: HCV replicon assay, GT1b replicon cells; type: cell-based; settings: Hepatitis C virus, 72 hours incubation, luciferase reporter or NEO gene qPCR readout, read-out: EC50 against HCV 1b genotype
Experimental: (§1) An HCV Replicon assay was utilized in the present disclosure, and was prepared, developed and validated as described in Science, 1999, 285 (5424), 110-3 and J. Virol., 2003, 77 (5), 3007-19.
(§2) HCV GT1a, GT1b and GT2a replicon cells were used to test the currently described compound series as well as wild-type cells HCV 1b and resistant cells Y^93H, L31F, P32L and I302V. GT1a and CT1b are HCV Replicon System which is transfected HCV 1a, 1b genotype respectively.
(§3) 1. Testing EC50 of the Compounds by Luciferase Assay
(§4) The GT1b cells and GT1a cells were seeded into 96-well plates (8,000 cells in 125 μl/well) respectively; each compound was diluted to desired concentration using 5-fold serial dilutions protocol, 10 dose in duplicate, and added to wells with POD™ 810 Plate Assembler. The final concentration of DMSO was 0.5%; the plates were incubated in a CO2 incubator for 72 hours; after that, 40 μl of Luciferase assay substrate (Promega Bright-Glo) was added to each well, and detected by a chemiluminescence detection system (Topcount Microplate Scintillation and Luminescence Counter) 5 minutes later; data analysis.
(§5) 2. Testing EC50 of the Compounds by Detecting Antibiotic G418 Resistance Gene NEO Gene
(§6) The GT1b cells and GT1a cells were seeded into 96-well plates (8,000 cells in 125 μl/well) respectively; each compound was diluted to desired concentration using 5-fold serial dilutions protocol, 10 dose in duplicate, and added to wells with POD™ 810 Plate Assembler., the final concentration of DMSO was 0.5%; the cells were incubated in a CO2 incubator for 72 hours; quantitative PCR. • Sample preparation: the supernatant was removed, 100 μl of FCW buffer solution was added to each well, washed carefully and discarded the solution; 50 μl of lysate FCP was added to each well, the cells was lysed as PCR template and diluted with DEPC water. • Quantitative PCR: preparation of reaction mixture according to PCR system; the reaction mixture was dispensed into a 384-well PCR reaction plate (specially for quantitative); and a standard template which was diluted in proportion was distributed into the plate; and the sample template was distributed into the plate; then the 384-well plate was sealed with closure plate membrane; the […] PCR machine was operated by procedures; data analysis.
(§7) 3. Data Processing: The EC50 Values of Compounds were Analyzed by GraphPad Prism Software.

HCV GT1a replicon cells = assay: HCV replicon assay, GT1a replicon cells; type: cell-based; settings: Hepatitis C virus, 72 hours incubation, luciferase reporter or NEO gene qPCR readout, read-out: EC50 against HCV 1a genotype
Experimental: as §1, §2, §3, §4, §5, §6, §7

Row | SMILES | EC50 (HCV GT1b replicon cells) [nM] | EC50 (HCV GT1a replicon cells) [nM]
1 | COC(=O)N[C@H](C(=O)N1CCC[C@H]1c1ncc(-c2ccc(-c3ccc(-c4ccc5nc([C@@H]6CCCN6C(=O)[C@@H](NC(=O)OC)C(C)C)[nH]c5c4)c4c3C3CCC4CC3)cc2)[nH]1)C(C)C [Example 21] | 0.013 | 0.093
2 | CC[C@H](C)[C@H](NC(=O)OC)C(=O)N1CCC[C@H]1c1nc2ccc(-c3ccc(-c4ccc(-c5cnc([C@@H]6CCCN6C(=O)[C@@H](NC(=O)OC)C(C)C)[nH]5)cc4)c4c3C3CCC4N3C)cc2[nH]1 (stereo partly shown) [Example 28] | 0.015 | 0.063
3 | COC(=O)N[C@H](C(=O)N1CCC[C@H]1c1ncc(-c2ccc(-c3ccc(-c4cnc([C@@H]5CCCN5C(=O)[C@@H](NC(=O)OC)C(C)C)[nH]4)c4c3C3CCC4C3)cc2)[nH]1)C(C)C (stereo partly shown) [Example 18] | 0.014 | 0.138
4 | COC(=O)N[C@H](C(=O)N1CCS[C@H]1c1ncc(-c2ccc(-c3ccc(-c4cnc([C@@H]5SCCN5C(=O)[C@@H](NC(=O)OC)C(C)C)[nH]4)c4c3C3CCC4C3)cc2)[nH]1)C(C)C (stereo partly shown) [Example 46] | 0.035 | 0.439
5 | COC(=O)N[C@H](C(=O)N1CCC[C@H]1C(=O)Nc1cccc(-c2ccc(-c3ccc(-c4cnc([C@@H]5CCCN5C(=O)[C@@H](NC(=O)OC)C(C)C)[nH]4)cc3)c3c2C2CCC3C2)c1)C(C)C (stereo partly shown) [Example 16] | 0.009 | 3.5
6 | COC(=O)N[C@H](C(=O)N1CCC[C@H]1c1nc2cc(-c3ccc(-c4ccc(-c5cnc([C@H]6CCCN6C(=O)[C@@H](NC(=O)OC)C(C)C)[nH]5)cc4)c4c3C3CCC4C3)ccc2[nH]1)c1ccccc1 (stereo partly shown) [Example 8] | 0.019 | 0.033
7 | COC(=O)N[C@H](C(=O)N1CCC[C@H]1c1nc2cc(-c3ccc(-c4ccc5[nH]c([C@@H]6CCCN6C(=O)[C@@H](NC(=O)OC)C(C)C)nc5c4)c4c3C3CCC4C3)ccc2[nH]1)C(C)C [Example 6] | 0.006 | 0.047
8 | COC(=O)N[C@H](C(=O)N1C[C@H](C)C[C@H]1c1ncc(-c2ccc(-c3ccc(-c4cnc([C@@H]5C[C@H](C)CN5C(=O)[C@@H](NC(=O)OC)C(C)C)[nH]4)c4c3C3CCC4N3C)cc2)[nH]1)C(C)C (stereo partly shown) [Example 33] | 0.009 | 0.038
9 | COC(=O)N[C@H](C(=O)N1CCC[C@H]1c1ncc(-c2ccc(-c3nnc(-c4ccc5[nH]c([C@@H]6CCCN6C(=O)[C@@H](NC(=O)OC)C(C)C)nc5c4)c4c3C3CCC4CC3)cc2)[nH]1)C(C)C [Example 11] | 0.023 | 0.049
10 | [2H]C([2H])([2H])[C@]([2H])(NC(=O)OC)C(=O)N1C[C@@H](F)C[C@H]1c1ncc(-c2ccc(-c3ccc(-c4cnc([C@@H]5C[C@H](F)CN5C(=O)[C@@]([2H])(NC(=O)OC)C([2H])([2H])[2H])[nH]4)c4c3C3CCC4C3)cc2)[nH]1 (stereo partly shown) [Example 79] | 0.043 | 0.314
11 | COC(=O)N[C@H](C(=O)N1CCC[C@H]1c1ncc(-c2ccc(-c3ccc(-c4ccc5nc([C@@H]6CCCN6C(=O)[C@@H](NC(=O)OC)C(C)C)[nH]c5c4)c4c3C3CCC4C3)cc2)[nH]1)C(C)C (stereo partly shown) [Example 17] | 0.007 | 0.767
12 | COC(=O)N[C@H](C(=O)N1CCC[C@H]1c1ncc(-c2ccc(-c3ccc(-c4cnc([C@@H]5CCCN5C(=O)[C@@H](NC(=O)OC)C(C)C)[nH]4)c4c3C3CCC4C3)c(F)c2)[nH]1)C(C)C (stereo partly shown) [Example 4] | 0.007 | 0.497
13 | COC(=O)N[C@@H](C)C(=O)N1CCC[C@H]1c1ncc(-c2ccc(-c3ccc(-c4ccc5[nH]c([C@@H]6CCCN6C(=O)[C@H](C)NC(=O)OC)nc5c4)c4c3C3CCC4C3)cc2)[nH]1 (stereo partly shown) [Example 7] | 0.076 | 0.094
14 | [2H]C([2H])([2H])C([2H])(C([2H])([2H])[2H])[C@]([2H])(NC(=O)OC)C(=O)N1CCC[C@H]1c1ncc(-c2ccc(-c3ccc(-c4cnc([C@@H]5CCCN5C(=O)[C@@]([2H])(NC(=O)OC)C([2H])(C([2H])([2H])[2H])C([2H])([2H])[2H])[nH]4)c4c3C3CCC4C3)c(F)c2)[nH]1 (stereo partly shown) [Example 77] | 0.009 | 0.206
15 | COC(=O)N[C@H](C(=O)N1CCC[C@H]1c1ncc(C#Cc2ccc(C#Cc3cnc([C@@H]4CCCN4C(=O)[C@@H](NC(=O)OC)C(C)C)[nH]3)c3c2C2CCC3N2C)[nH]1)C(C)C [Example 24] | 0.096 | 0.453
16 | COC(=O)N[C@H](C(=O)N1CCC[C@H]1C(=O)Nc1ccc(-c2ccc(-c3ccc(NC(=O)[C@@H]4CCCN4C(=O)[C@@H](NC(=O)OC)C(C)C)cc3)c3c2C2CCC3C2)cc1)C(C)C [Example 43] | 0.073 | 1.13
17 | COC(=O)N[C@H](C(=O)N1C[C@@H](F)CC1c1ncc(-c2ccc(-c3ccc(-c4cnc(C5C[C@H](F)CN5C(=O)[C@@H](NC(=O)OC)C(C)C)[nH]4)c4c3C3CCC4C3)cc2)[nH]1)C(C)C (stereo partly shown) [Example 13] | 0.034 | 0.53
18 | COC(=O)N[C@H](C(=O)N1CCC[C@H]1c1nc2ccc(-c3ccc(-c4ccc(-c5cnc([C@@H]6C7CCC(C7)N6C(=O)[C@@H](NC(=O)OC)C(C)C)[nH]5)cc4)c4c3C3CCC4C3)cc2[nH]1)C(C)C (stereo partly shown) [Example 1] | 0.008 | 0.029
19 | COC(=O)N[C@H](C(=O)N1CC(F)(F)CC1c1ncc(-c2ccc(-c3ccc(-c4cnc([C@@H]5CC(F)(F)CN5C(=O)[C@@H](NC(=O)OC)C(C)C)[nH]4)cc3)c3c2C2CCC3N2C)[nH]1)C(C)C (stereo partly shown) [Example 31] | 0.038 | 0.077
20 | CCC(C)[C@H](NC(=O)OC)C(=O)N1CCC[C@H]1c1nc2cc(-c3ccc(-c4ccc(-c5cnc([C@@H]6CCCN6C(=O)[C@@H](NC(=O)OC)C(C)C)[nH]5)cc4)c4c3C3CCC4C3)ccc2[nH]1 (stereo partly shown) [Example 9] | 0.009 | 0.104
21 | COC(=O)N[C@H](C(=O)N1CCC[C@H]1c1nc2ccc(-c3ccc(-c4ccc(-c5cnc([C@@H]6CC7CC7N6C(=O)[C@@H](NC(=O)OC)C(C)C)[nH]5)cc4)c4c3C3CCC4C3)cc2[nH]1)C(C)C (stereo partly shown) [Example 3] | 0.013 | 0.053
22 | COC(=O)N[C@H](C(=O)N1CCC[C@H]1c1ncc(-c2ccc(-c3ccc(-c4ccc5nc([C@@H]6CCCN6C(=O)[C@@H](NC(=O)OC)C(C)C)[nH]c5c4)c4c3C3CCC4C3)nc2)[nH]1)C(C)C (stereo partly shown) [Example 41] | 0.01 | 0.067
23 | COC(=O)N[C@H](C(=O)N1CCC[C@H]1c1ncc(-c2ccc(-c3ccc(-c4cnc([C@@H]5CCCN5C(=O)[C@@H](NC(=O)OC)C5CCCCC5)[nH]4)c4c3C3CCC4C3)cc2)[nH]1)C1CCCCC1 (stereo partly shown) [Example 10] | 0.013 | 0.374
24 | COC(=O)N[C@H](C(=O)N1CCC[C@H]1c1ncc(-c2ccc(-c3ccc(-c4cnc([C@@H]5CCCN5C(=O)[C@@H](NC(=O)OC)C(C)C)[nH]4)c4c3C3CCC4N3C)cc2)[nH]1)C(C)C (stereo partly shown) [Example 26] | 0.077 | 0.653
25 | COC(=O)N[C@H](C(=O)N1CCCC1c1nc2ccc(-c3ccc(-c4ccc5nc([C@@H]6CCCN6C(=O)[C@@H](NC(=O)OC)C(C)C)[nH]c5c4)c4c3C3CCC4O3)cc2[nH]1)C(C)C (stereo partly shown) [Example 65] | 0.013 | 0.064
26 | COC(=O)N[C@H](C(=O)N1C[C@@H](C)C[C@H]1c1ncc(-c2ccc(-c3ccc(-c4cnc([C@@H]5C[C@H](C)CN5C(=O)[C@@H](NC(=O)OC)C(C)C)[nH]4)c4c3C3CCC4C3)cc2)[nH]1)C(C)C (stereo partly shown) [Example 20] | 0.045 | < 0.001
